Reference: patent US10947574B2, “Method for producing fermented carotenoid using carotenoid-producing bacteria obtained by using cobalt-containing culturing medium” (ENEOS CORPORATION, priority 2015, dated 2021)

Tests used:
[1] = test system: Paracoccus carotinifaciens strain E-396 (FERM BP-4283); format: cell-based
Description: Subsequently, a medium of the following composition (glucose 30 g/L, filtered corn steep liquor 30 g/L, ammonium sulfate 1.5 g/L, potassium dihydrogen phosphate 1.5 g/L, disodium hydrogen phosphate dodecahydrate 3.8 g/L, calcium chloride dihydrate 5.0 g/L, magnesium sulfate heptahydrate 0.7 g/L, iron sulfate heptahydrate 1.0 g/L, silicon-based defoaming agent 0.2 g/L) was dispensed in 7.2 ml volumes into cotton-plugged test tubes having an inner diameter of 18 mm to prepare 13 test tubes containing a test tube medium for production. The ingredients used to prepare the test tube medium for production were obtained from lots where microbial cells had been confirmed not to grow well.
The 12 trace metals indicated in Table 1 were separately prepared in 0.8 ml volumes to have their final concentrations indicated in Table 1 and then added to the above 12 test tubes for production, respectively. The remaining one test tube was supplemented with 0.8 ml of ion exchanged water.
The resulting culture solution was then inoculated in 0.05 ml volumes into the 13 types of test tube media for production and cultured under shaking at 28° C. for 4 days at 300 spm.

[2] = test system: Paracoccus carotinifaciens mutant strain CF-358; assay: Example 5: 5 L fermenter culture with cobalt chloride, growth (OD610) and carotenoid levels (HPLC); format: cell-based
Description: In the following examples, carotenoids were quantified by high performance liquid chromatography (HPLC) as follows.
Two columns of Inertsil SIL-100A, 5 μm (ϕ4.6 mm×250 mm) (GL Sciences Inc., Japan) were connected together for use as a column. For elution, a mixed solution of n-hexane, tetrahydrofuran and methanol (40:20:1) serving as a mobile phase was passed through the column at a flow rate of 1.0 mL per minute at a constant temperature around room temperature. For measurement, samples were each dissolved in tetrahydrofuran and diluted 100-fold with the mobile phase, and 20 μL aliquots of the resulting dilutions were injected into the column. The column eluates were detected at a wavelength of 470 nm. As a standard for quantification, astaxanthin (SIGMA, Cat. No. A9335) was used. The astaxanthin concentration of the standard solution was determined using the following equation after measuring the absorbance (A) of the standard solution at 477 nm and the area percentage % (B) of the astaxanthin peak in HPLC analysis under the above conditions. […]
The ingredients used to prepare the seed flask medium were obtained from lots where microbial cells had been confirmed to grow well.
The resulting culture solution was then inoculated in 80 ml volumes into the individual fermenters, followed by aeration spinner culture at 28° C. under a gauge pressure of 0.01 MPa at an aeration volume of 1.5 vvm for 5 days. To maintain a pH of 7.2 during culture, 15% aqueous ammonia was automatically supplied. The number of spinner rotations was automatically varied such that the dissolved oxygen concentration in each culture solution was maintained at 2 to 4 ppm. An alcohol-based defoaming agent was automatically added to avoid bubbling.
At the completion of culture, the culture solutions were each measured for microbial cell growth by OD610 and measured for carotenoid levels by HPLC (Table 10).

[3] = cobalt added 0.042 μmol/L, total 0.045 μmol/L
[4] = cobalt added 0.42 μmol/L, total 0.42 μmol/L
[5] = cobalt added 4.2 μmol/L, total 4.2 μmol/L
[6] = cobalt added 21 μmol/L, total 21 μmol/L

Which “microbial cell growth (by OD610), in words” value [1] does the source give for `O.O.O.O.O.O.[Cl-].[Cl-].[Co+2]` [Cobalt chloride hexahydrate] here?
The value was “good growth”.

And the OD610 ([1]; each trace metal added singly at final concentration of Table 1, shaking at 28° C. for 4 days)?
Its OD610 is 32.

And the “Carotenoid: 3-Hydroxyechinenone” value [2, 3]?
The value was 12 mg/L.

What about the “Carotenoid: Adonirubin” value [2, 3] of the same compound?
The value was 273 mg/L.

What about the “Carotenoid: Adonixanthin” value [2, 3] of the same compound?
The value was 45 mg/L.

What about the “Carotenoid: Astaxanthin” value [2, 3] of the same compound?
Its value is 775 mg/L.

What about the “Carotenoid: Asteroidenone” value [2, 3] of the same compound?
The value was 11 mg/L.

What about the “Carotenoid: Canthaxanthin” value [2, 3] of the same compound?
The value was 90 mg/L.

What about the “Carotenoid: Echinenone” value [2, 3] of the same compound?
The value was 37 mg/L.

What about the “Carotenoid: β-Carotene” value [2, 3] of the same compound?
The value was 58 mg/L.

And the OD610 [2, 3]?
Its OD610 is 194.

And the Total carotenoid [2, 3]?
The Total carotenoid was 1302 mg/L.

And the “Total carotenoid/dry microbial cells” value [2, 3]?
The value was 41.9 mg/g.

What about the “Carotenoid: 3-Hydroxyechinenone” value [2, 4] of the same compound?
Its value is 12 mg/L.

And the “Carotenoid: Adonirubin” value [2, 4]?
Its value is 216 mg/L.

And the “Carotenoid: Adonixanthin” value [2, 4]?
The value was 73 mg/L.

What about the “Carotenoid: Astaxanthin” value [2, 4] of the same compound?
The value was 815 mg/L.

What about the “Carotenoid: Asteroidenone” value [2, 4] of the same compound?
Its value is 15 mg/L.

And the “Carotenoid: Canthaxanthin” value [2, 4]?
Its value is 74 mg/L.

And the “Carotenoid: Echinenone” value [2, 4]?
Its value is 37 mg/L.

What about the “Carotenoid: β-Carotene” value [2, 4] of the same compound?
The value was 60 mg/L.

And the OD610 [2, 4]?
The OD610 was 208.

What about the Total carotenoid [2, 4] of the same compound?
Its Total carotenoid is 1303 mg/L.

And the “Total carotenoid/dry microbial cells” value [2, 4]?
The value was 39.1 mg/g.

And the “Carotenoid: 3-Hydroxyechinenone” value [2, 5]?
The value was 5 mg/L.

What about the “Carotenoid: Adonirubin” value [2, 5] of the same compound?
Its value is 285 mg/L.

What about the “Carotenoid: Adonixanthin” value [2, 5] of the same compound?
The value was 18 mg/L.

And the “Carotenoid: Astaxanthin” value [2, 5]?
The value was 580 mg/L.

What about the “Carotenoid: Asteroidenone” value [2, 5] of the same compound?
Its value is 3 mg/L.

What about the “Carotenoid: Canthaxanthin” value [2, 5] of the same compound?
The value was 338 mg/L.

What about the “Carotenoid: Echinenone” value [2, 5] of the same compound?
Its value is 61 mg/L.

What about the “Carotenoid: β-Carotene” value [2, 5] of the same compound?
The value was 29 mg/L.

And the OD610 [2, 5]?
The OD610 was 191.

What about the Total carotenoid [2, 5] of the same compound?
The Total carotenoid was 1319 mg/L.

And the “Total carotenoid/dry microbial cells” value [2, 5]?
Its value is 43.2 mg/g.

And the “Carotenoid: 3-Hydroxyechinenone” value [2, 6]?
Its value is 4 mg/L.

And the “Carotenoid: Adonirubin” value [2, 6]?
The value was 347 mg/L.

What about the “Carotenoid: Adonixanthin” value [2, 6] of the same compound?
Its value is 7 mg/L.

What about the “Carotenoid: Astaxanthin” value [2, 6] of the same compound?
Its value is 103 mg/L.

And the “Carotenoid: Asteroidenone” value [2, 6]?
The value was 1 mg/L.

What about the “Carotenoid: Canthaxanthin” value [2, 6] of the same compound?
The value was 431 mg/L.

And the “Carotenoid: Echinenone” value [2, 6]?
The value was 103 mg/L.

And the “Carotenoid: β-Carotene” value [2, 6]?
Its value is 27 mg/L.

And the OD610 [2, 6]?
The OD610 was 143.

What about the Total carotenoid [2, 6] of the same compound?
The Total carotenoid was 1023 mg/L.

And the “Total carotenoid/dry microbial cells” value [2, 6]?
The value was 44.9 mg/g.

And the “total carotenoid production level, in words” value ([2]; final concentration of 0.042 to 21 μmol/L)?
The value was “high”.
